Here are results for two molecules from US9763900B2, “Chemical chaperonins as novel molecular modulators of beta protein aggregation present in conformational diseases” (Centro de Neurociencias de Cuba (NEURONIC), priority 2013, dated 2017).

The conditions of data set [1]: Tubis et al. 1960; cited from earlier work.
Data set [2] deals with rat Cerebellar Granular Cells (CGC). The data set is described as follows: Cell viability (MTT) of CGC exposed to IAPP 20-29 monomer or aggregated. Type of data set: cell-based. On the procedure:
The solutions fragment of IAPP 20-29 (MM 1029 Da) are prepared in PBS buffer (100 mM, pH 7.4; NaCl 100 mM). Monomeric peptide concentration was 5.8 mM and the aggregation peptide was 32.6 μM in DMSO. Protein concentration is calculated using the calibration curve.
Chaperonin: solutions of chaperonin B and D (25 μM), selected as non-limiting examples of Formula I, are prepared in 1.2 mL of DMSO and dilute with the buffer to obtain a final volume of […]. Curcumin (5.5 mM) used as reference compound was prepared in ethanol. (Yang, F. et al. in J. Biol Chem 2005, 280, 5892-5901). […]
In particular, in this invention, the viability of CGC cell cultures was assessed with the 20-29 fragment of IAPP, in its monomeric and aggregated form or with the mixtures of protein:chaperonin at different molar ratios. Briefly, in all samples of CGC, half of the volume of medium is removed to add, independently, the quantities of tested protein or mixtures of peptide:chaperonin with different molar ratios (1:0.3 or 1:1). […]
In FIG. 12, the results of the assessment of cell viability was observed by MTT assay, which were analyzed by the one-way ANOVA statistical test, followed by a posteriori LSD test (LSD for its acronym in English Least Significant Difference).

Take `Nc1c(/N=N/c2ccc(-c3ccc(/N=N/c4cc(S(=O)(=O)O)c5ccccc5c4N)cc3)cc2)cc(S(=O)(=O)O)c2ccccc12` [CR, Congo Red]: the “Fraction able to cross the blood brain barrier (BBB)” value in data set [1] was 0.03%. For the molecule `COc1cc(/C=C/C(=O)CC(=O)/C=C/c2ccc(O)c(OC)c2)ccc1O` [curcumin], in data set [2] (IAPP 20-29 monomer, 20 hours, p>0.05), the “CGC viability with IAPP monomer plus reference compound versus monomer alone” value is reported as “no significant differences”. For the same molecule, the “CGC viability with aggregated IAPP 20-29 plus compound versus aggregated fragment alone” value in data set [2] (aggregated form of IAPP 20-29, 20 hours) was “marked cytoprotective effect”.
